Data published in patent US11992494B2, “Cyclopentathiophene carboxamide derivatives as platelet activating factor receptor antagonists” (Boehringer Ingelheim International GmbH, priority 2021, dated 2024).
pIC50, pKi: −log10 of the molar value.

Molecular target: T1, PAFR (Homo sapiens, UniProt P25105)
Experiment: not given
Settings: literature values (Weber et al.; EP0368175A1); read-out: PAFR affinity (Ki); cited from earlier work
Target sequence in this assay (P25105 whole entry, species assumed): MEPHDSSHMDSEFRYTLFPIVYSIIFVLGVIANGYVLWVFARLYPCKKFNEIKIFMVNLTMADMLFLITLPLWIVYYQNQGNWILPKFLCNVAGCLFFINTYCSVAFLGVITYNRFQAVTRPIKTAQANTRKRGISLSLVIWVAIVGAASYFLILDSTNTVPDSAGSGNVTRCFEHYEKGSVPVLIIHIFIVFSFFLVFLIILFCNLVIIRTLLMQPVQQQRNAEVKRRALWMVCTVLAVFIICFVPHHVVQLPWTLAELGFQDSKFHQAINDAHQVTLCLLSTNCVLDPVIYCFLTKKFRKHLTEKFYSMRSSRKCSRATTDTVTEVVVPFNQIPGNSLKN

| Compound | pKi |
| --- | --- |
| Cc1nnc2n1-c1sc3c(c1C(c1ccccc1Cl)=NC2)CC(C(=O)N1CCOCC1)C3 (racemic) [WEB 2170 (bepafant) racemate] | 7.82 |
| Cc1nnc2n1-c1sc3c(c1C(c1ccccc1Cl)=NC2C)CC(C(=O)N1CCOCC1)C3 (single isomer, unassigned; (+)) [(+) 9dA] | 6.40 |
| Cc1nnc2n1-c1sc3c(c1C(c1ccccc1Cl)=NC2C)CC(C(=O)N1CCOCC1)C3 (single isomer, unassigned; (+)) [(+) 9dB] | 5.52 |
| Cc1nnc2n1-c1sc3c(c1C(c1ccccc1Cl)=NC2)CC(C(=O)N1CCOCC1)C3 (single isomer, unassigned; (+)) [(+)-bepafant] | 6.18 |
| Cc1nnc2n1-c1sc3c(c1C(c1ccccc1Cl)=NC2C)CC(C(=O)N1CCOCC1)C3 (single isomer, unassigned; (-)) [(−) 9dA] | 7.15 |
| Cc1nnc2n1-c1sc3c(c1C(c1ccccc1Cl)=NC2C)CC(C(=O)N1CCOCC1)C3 (single isomer, unassigned; (-)) [(−) 9dB] | 8.10 |
| Cc1nnc2n1-c1sc3c(c1C(c1ccccc1Cl)=NC2)CC(C(=O)N1CCOCC1)C3 (single isomer, unassigned; (-)) [(−)-bepafant] | 7.85 |

Same assay, conditions: see EP0368175A1; cited from earlier work

| Compound | binding to the PAFR of (−)-enantiomer relative to (+)-enantiomer |
| --- | --- |
| Cc1nnc2n1-c1sc(CCC(=O)N3CCOCC3)cc1C(c1ccccc1Cl)=NC2C (stereo not drawn) [example 1 of EP0368175A1 (−)-enantiomer] | (−)-enantiomer 35 times stronger binding |

Molecular target: T1, PAFR
Experiment: not given
Settings: PAFR binding, Miyazawa et al.; cited from earlier work
Target sequence in this assay (P25105 whole entry, species assumed): as above

| Compound | pIC50 |
| --- | --- |
| C#CCCOC(=O)N1CCc2c(sc3c2C(c2ccccc2Cl)=NC(C)c2nnc(C)n2-3)C1 (racemic) [compound 22 of Miyazawa et al. racemate] | 8.82 |
| C#CCCOC(=O)N1CCc2c(sc3c2C(c2ccccc2Cl)=NC(CC)c2nnc(C)n2-3)C1 (racemic) [compound 24 of Miyazawa et al. racemate] | 7.66 |
| C#CCCOC(=O)N1CCc2c(sc3c2C(c2ccccc2Cl)=NC(C)c2nnc(C)n2-3)C1 (single isomer, unassigned) [compound 22 of Miyazawa et al. (+) isomer] | 9.47 |
| C#CCCOC(=O)N1CCc2c(sc3c2C(c2ccccc2Cl)=NC(C)c2nnc(C)n2-3)C1 (single isomer, unassigned) [compound 22 of Miyazawa et al. (−) isomer] | 7.09 |
| Cc1nnc2n1-c1sc3c(c1C(c1ccccc1Cl)=NC2C)CCN(C(=O)OC(C)(C)C#N)C3 (single isomer, unassigned) [compound 34 of Miyazawa et al. (+) isomer] | 8.51 |
| Cc1nnc2n1-c1sc3c(c1C(c1ccccc1Cl)=NC2C)CCN(C(=O)OC(C)(C)C#N)C3 (single isomer, unassigned) [compound 34 of Miyazawa et al. (−) isomer] | 6.30 |
| C#CCCOC(=O)N1CCc2c(sc3c2C(c2ccccc2Cl)=NC(C)c2nnc(C)n2-3)C1 (single isomer, unassigned) [compound 35 of Miyazawa et al. (+) isomer] | 8.55 |
| C#CCCOC(=O)N1CCc2c(sc3c2C(c2ccccc2Cl)=NC(C)c2nnc(C)n2-3)C1 (single isomer, unassigned) [compound 35 of Miyazawa et al. (−) isomer] | 6.38 |
| C#CCCOC(=O)N1CCc2c(sc3c2C(c2ccccc2Cl)=NCc2nnc(C)n2-3)C1 [compound 18 of Miyazawa et al.] | 8.42 |
| C#CCCOC(=O)N1CCc2c(sc3c2C(c2ccccc2Cl)=NC(C)(C)c2nnc(C)n2-3)C1 [compound 23 of Miyazawa et al.] | 6.80 |
| C#CCCOC(=O)N1CCc2c(sc3c2C(c2ccccc2Cl)=NC(CC)(CC)c2nnc(C)n2-3)C1 [compound 25 of Miyazawa et al.] | 6.54 |

Molecular target: T1, PAFR
Experiment: cellular HTRF IP1 assay: inhibition of PAFR activation by PAF C-16 ligand (endpoint assay)
Format: cell-based
Design: expressed in transfected cells; host or cells: HEK293
Settings: HEK293 cells overexpressing human PAFR; PAF ligand 11 nM; Table 2
How it was run: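 HEK293 cells overexpressing human PAFR were preincubated with compound (1% DMSO) 90 min at 37°C, then challenged with 11 nM PAF C-16 for 60 min in HBSS/20 mM HEPES pH 7.4/50 mM LiCl/0.1% BSA. IP1 accumulation read by HTRF (665/620 nm emission).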
Target sequence in this assay (P25105 whole entry): as the sequence (P25105 whole entry, species assumed) above

| Compound | pIC50 |
| --- | --- |
| CCCN(CCC)C(=O)[C@@H]1Cc2sc3c(c2C1)C(c1ccccc1Cl)=NC1(CC1)c1nnc(C)n1-3 [Example 104, (13′S)-9′-(2-chlorophenyl)-3′-methyl-N, N-dipropyl-16′-thia-2′,4′,5′,8′-tetraazaspiro[cyclopropane-1,7′-tetracyclo[8.6.0.0^2,6.0^11,15]hexadecane]-1′(10′),3′,5′,8′,11′(15′)-pentaene-13′-carboxamide] | 9.05 |
| Cc1nnc2n1-c1sc3c(c1C(c1ccccc1Cl)=NC21CC1)C[C@H](C(=O)N1CCOCC1)C3 [Example 114] | 8.14 |
| Cc1nnc2n1-c1sc3c(c1C(c1ccccc1Cl)=NC21CC1)C[C@H](C(=O)N[C@@H]1CCC(F)(F)C1)C3 [Example 124] | 8.62 |

Same assay, conditions: S-bepafant and its methylated derivatives in the above-mentioned assay

| Compound | pIC50 |
| --- | --- |
| Cc1nnc2n1-c1sc3c(c1C(c1ccccc1Cl)=N[C@H]2C)C[C@H](C(=O)N1CCOCC1)C3 [comparative example 1a, reference compound] | 8.16 |
| Cc1nnc2n1-c1sc3c(c1C(c1ccccc1Cl)=N[C@@H]2C)C[C@H](C(=O)N1CCOCC1)C3 [comparative example 1b, reference compound] | < 6.00 |

Same assay, conditions: dedicated head-to-head comparison assay run: cyclopropylene vs di-methyl / cyclobutylene analogues

| Compound | pIC50 |
| --- | --- |
| Cc1nnc2n1-c1sc3c(c1C(c1ccccc1Cl)=NC21CC1)C[C@H](C(=O)N1CCOCC1)C3 [Example 114] | 8.18 |
| Cc1nnc2n1-c1sc3c(c1C(c1ccccc1Cl)=NC21CC1)C[C@H](C(=O)N[C@@H]1CCC(F)(F)C1)C3 [Example 124] | 8.59 |
| Cc1nnc2n1-c1sc3c(c1C(c1ccccc1Cl)=NC21CCC1)C[C@H](C(=O)N1CCOCC1)C3 [comparative example 2, reference compound] | 7.23 |
| Cc1nnc2n1-c1sc3c(c1C(c1ccccc1Cl)=NC2(C)C)C[C@H](C(=O)NC1CCC1)C3 [reference compound] | 8.12 |
| Cc1nnc2n1-c1sc3c(c1C(c1ccccc1Cl)=NC2(C)C)C[C@H](C(=O)NC1CCOCC1)C3 [reference compound] | 7.19 |
| Cc1nnc2n1-c1sc3c(c1C(c1ccccc1Cl)=NC2(C)C)C[C@H](C(=O)NC1CCc2cc(F)ccc21)C3 (some centres unmarked) [reference compound] | 8.31 |
| CCCNC(=O)[C@@H]1Cc2sc3c(c2C1)C(c1ccccc1Cl)=NC(C)(C)c1nnc(C)n1-3 [reference compound] | 7.54 |
| Cc1nnc2n1-c1sc3c(c1C(c1ccccc1Cl)=NC2(C)C)C[C@H](C(=O)NC1(c2ccccn2)CC1)C3 [reference compound] | 7.59 |
| Cc1nnc2n1-c1sc3c(c1C(c1ccccc1Cl)=NC2(C)C)C[C@H](C(=O)N(C)[C@H]1CC[C@H](O)CC1)C3 [reference compound] | 7.06 |
| Cc1nnc2n1-c1sc3c(c1C(c1ccccc1Cl)=NC2(C)C)C[C@H](C(=O)N[C@@H]1CCC(F)(F)C1)C3 [reference compound] | 8.11 |
| Cc1noc(C)c1NC(=O)[C@@H]1Cc2sc3c(c2C1)C(c1ccccc1Cl)=NC(C)(C)c1nnc(C)n1-3 [reference compound] | 7.41 |
| Cc1nnc2n1-c1sc3c(c1C(c1ccccc1Cl)=NC2(C)C)C[C@H](C(=O)N1CCC(F)(F)CC1)C3 [reference compound] | 7.52 |

Molecular target: PAF (Homo sapiens, UniProt P25105)
Sequence (P25105 whole entry): as the sequence (P25105 whole entry, species assumed) above
Experiment: not given
Settings: see EP0480455A1; cited from earlier work

| Compound | PAF-antagonistic activity relative to racemate |
| --- | --- |
| Cc1nnc2n1-c1sc(CCC(=O)N3CCOCC3)cc1C(c1ccccc1Cl)=NC2C (stereo not drawn) [example 1 of EP0368175A1 S-configured isomer] | S-configured isomer with several times |

Same assay, conditions: see EP0480455A1; listed as Compound B S-configured enantiomer; cited from earlier work

| Compound | PAF-antagonistic activity relative to racemate |
| --- | --- |
| Cc1nnc2n1-c1sc(CCC(=O)N3CCOCC3)cc1C(c1ccccc1Cl)=NC2C (stereo not drawn) [example 1 of EP0368175A1 S-configured isomer] | several times stronger |

System: not listed separately
Experiment: Evaluation of chemical stability (solution state stress conditions, HPLC)
Format: physicochemical
Settings: 0.25 mg/ml, pH 1.2
Protocol: Evaluation of Chemical Stability Within solution state stability studies the influence of temperature, pH and light exposure are analyzed. Stress conditions are applied in order to get a fast signal of possible chemical decomposition via hydrolytical, oxidative or photodegradative pathways. […] The stressed/stored samples are analysed by a stability indicative chiral or achiral HPLC-method, as appropriate. Degradation studies are used to simulate chemical stability of compounds in the acidic part of the gastrointestinal tract. The compounds of the invention show high chemical stability in acidic aqueous media (pH value ca. 1.2) what makes their application as medical drugs to treat human diseases less restricted and troublesome. […] Compound is dissolved in an HPLC vial in a mixture of acetonitrile/0.1 M aqueous HCl (ratio: 2:3; pH ca. 1.2) to get a concentration of approximately 0.25 mg/ml. The vial is then transferred into an HPLC autosampler system and maintained at the desired temperature of, e.g., 40° C. A first sample is taken and injected immediately into a standard HPLC system with a UV DAD detector. A further sample is injected after 24 hours. Amount of degraded compound is measured by determining the recovery rate of compound [%] for the 24 h injection using an HPLC standard gradient method. Therefore the peak area of the main peak for the first injection (AUt0) is determined and set as 100%. Peak area of the main peak is determined also for the 24 h injection (AU24 h) and expressed as fraction of (AU24 h)/(AUt0)[%]. Analogously, the amount of degraded compound is determined for stability examinations running for more than 1 day, e.g., for 3 days.

| Compound | Amount of degradation after 3 d at 40° C. in ACN/0.1M aq. HCl [%] |
| --- | --- |
| CCCN(CCC)C(=O)[C@@H]1Cc2sc3c(c2C1)C(c1ccccc1Cl)=NC1(CC1)c1nnc(C)n1-3 [Example 104, (13′S)-9′-(2-chlorophenyl)-3′-methyl-N, N-dipropyl-16′-thia-2′,4′,5′,8′-tetraazaspiro[cyclopropane-1,7′-tetracyclo[8.6.0.0^2,6.0^11,15]hexadecane]-1′(10′),3′,5′,8′,11′(15′)-pentaene-13′-carboxamide] | 1.5 |

Same assay, conditions: 40° C., ACN/0.1M aq. HCl (pH ca. 1.2)

| Compound | Amount of degradation after 3 d at 40° C. in ACN/0.1M aq. HCl [%] |
| --- | --- |
| Cc1nnc2n1-c1sc3c(c1C(c1ccccc1Cl)=NC21CC1)C[C@H](C(=O)N1CCOCC1)C3 [Example 114] | 4 |
| Cc1nnc2n1-c1sc3c(c1C(c1ccccc1Cl)=NC21CC1)C[C@H](C(=O)N[C@@H]1CCC(F)(F)C1)C3 [Example 124] | 2.5 |
